molecular target: T1, human TRPC6 (Homo sapiens, UniProt Q9Y210); test: TRPC6 calcium flux assay (FLIPR, OAG-stimulated calcium influx); type: cell-based; conditions: HEK293 cells stably transfected with human TRPC6, read-out: hTRPC6 Potency
T1 construct: expressed in transfected cells
T1 sequence (Q9Y210 1-931): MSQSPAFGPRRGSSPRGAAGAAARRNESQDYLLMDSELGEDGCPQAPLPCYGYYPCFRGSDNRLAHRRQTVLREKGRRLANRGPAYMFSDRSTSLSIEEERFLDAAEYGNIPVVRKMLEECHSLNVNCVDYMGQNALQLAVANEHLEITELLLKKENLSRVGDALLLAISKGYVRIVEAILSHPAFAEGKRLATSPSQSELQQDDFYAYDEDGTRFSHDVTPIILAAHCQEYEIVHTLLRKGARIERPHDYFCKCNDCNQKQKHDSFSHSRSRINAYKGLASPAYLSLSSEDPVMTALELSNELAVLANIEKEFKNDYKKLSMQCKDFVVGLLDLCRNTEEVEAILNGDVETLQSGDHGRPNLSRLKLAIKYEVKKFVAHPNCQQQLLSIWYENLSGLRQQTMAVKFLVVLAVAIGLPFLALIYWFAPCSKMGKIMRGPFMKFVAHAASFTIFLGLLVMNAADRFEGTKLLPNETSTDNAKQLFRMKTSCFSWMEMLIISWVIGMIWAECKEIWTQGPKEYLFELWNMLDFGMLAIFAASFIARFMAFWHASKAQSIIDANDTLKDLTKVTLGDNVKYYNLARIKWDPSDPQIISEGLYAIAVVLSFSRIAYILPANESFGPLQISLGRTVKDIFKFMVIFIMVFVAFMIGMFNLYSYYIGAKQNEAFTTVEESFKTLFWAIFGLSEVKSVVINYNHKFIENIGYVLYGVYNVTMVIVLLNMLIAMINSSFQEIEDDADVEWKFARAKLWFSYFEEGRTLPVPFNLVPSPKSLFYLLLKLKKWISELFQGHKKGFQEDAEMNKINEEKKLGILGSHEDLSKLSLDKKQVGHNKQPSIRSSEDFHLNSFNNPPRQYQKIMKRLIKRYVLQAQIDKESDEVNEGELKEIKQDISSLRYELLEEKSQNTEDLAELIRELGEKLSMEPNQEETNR
Description: Biological Example 1 TRPC6 Calcium Flux Assay
Potency of TRPC6 (Transient receptor potential channel family C6) inhibitors were measured by their inhibition of Calcium influx trigged by […] (1-Oleoyl-2-acetyl-sn-glycerol, Millipore Sigma, O6754) stimulation on HEK293 cells stablely transfected with human TRPC6 using a FLIPR tetra system. Cells were grown in a humidified environment at 37° C. under 5% CO2 using the growth medium with the following selective reagents (Dulbecco's Modified Eagle's Medium (DMEM) high glucose, 10% Fetal Bovine Serum, 1×PSGlu (penicillin-streptomycin glutamine), 1×NEAA (Non-essential amino acid), 1× Na Pyruvate and 200 ug/ml Hygromycin). For general passage, cells were grown to 70-90% confluency; the media was removed, and the cells were gently washed 2 times with calcium and magnesium free PBS (phosphate-buffered saline). Trypsin (3 mL) was applied for 5 minutes at 37° C. The cells were dislodged by rapping flask against base of a hand and 7 mL of growth medium was added to deactivate trypsin and re-suspend cells. The usual splitting schedule was 1:5 every 2-3 days.
Cells were plated the day before the assay, plating cell density is 1.0-1.5×10^4/25 μl/well in poly-D-lysine (PDL) coated 384-well plates using either multichannel pipettes or multidrop. These cells were first incubated with fluorescence dye at room temperature for 90-120 minutes after they were grown on PDL-coated 384-well black plates overnight (Dye loading buffer 10 ml example: 9 mL assay buffer, 1 mL, 10×PBX signal enhancer, 10 μL Calcium indicator). The cells were incubated with a dose of compounds for 25 minutes before being stimulated with TRPC6 agonist OAG. The OAG solution was prepared by adding OAG into assay buffer (Ca ringer solution base: 10 mM HEPES (4-(2-hydroxyethyl)-1-piperazine-ethanesulfonic acid), 4 mM MgCl2, 120 mM NaCl, 5 mM KCl, pH=7.2 @25° C.)+0.1% BSA+2 mM CaCl2) to the concentration of 0.2 mM/2% DMSO, which achieves a final on cell concentration of 50 uM/0.5% DMSO. 12.5 uL OAG mixture was added and the activation of the TRPC6 channel was measured by the change of intracellular Calcium levels on FLIPR terra system.
Data was acquired by measuring the fluorescent peak signal subtracted from the background during the 180 second imaging frame. Each data point is further normalized to 100% of OAG triggered signal vs. buffer. Table 16 provides the IC50 for each compound, which data is obtained by plotting peak signal over the compound dose.

Point of comparison: `CN(C(=O)Cn1c(N2CC[C@@H](F)[C@H](N)C2)nc2cc(F)c(F)cc21)C1CCS(=O)(=O)C1` (mixture of isomers) [Example 525, 2-(2-((3R,4R)-3-amino-4-fluoropiperidin-1-yl)-5,6-difluoro-1H-benzo[d]imidazol-1-yl)-N-(1,1-dioxidotetrahydrothiophen-3-yl)-N-methylacetamide], IC50 1.78 µM. Against it:
- 4-((2-((3R,4R)-3-amino-4-hydroxypiperidin-1-yl)-1H-benzo[d]imidazol-1-yl)methyl)benzonitrile compound with 4-((2-((3S,4S)-3-amino-4-hydroxypiperidin-1-yl)-1H-benzo[d]imidazol-1-yl)methyl)benzonitrile (1:1) dihydrochloride [Example 155] — 110-fold lower, 0.0162 µM
- CCN(CC(C)C#N)C(=O)Cn1c(N2CC[C@@H](F)[C@H](N)C2)nc2cc(F)c(F)cc21 (mixture of isomers) [Example 237, 2-(2-((3R,4R)-3-amino-4-fluoropiperidin-1-yl)-5,6-difluoro-1H-benzo[d]imidazol-1-yl)-N-(2-cyanopropyl)-N-ethylacetamide] — 8-fold lower, 0.223 µM
- CN1CCC(n2c(N3CC[C@@H](F)[C@H](N)C3)nc3cc(F)c(F)cc32)C1=O (mixture of isomers) [Example 238, 3-(2-((3R,4R)-3-amino-4-fluoropiperidin-1-yl)-5,6-difluoro-1H-benzo[d]imidazol-1-yl)-1-methylpyrrolidin-2-one] — 9.6-fold lower, 0.185 µM
- N[C@@H]1CN(c2nc3cc(F)c(F)cc3n2C2CCCN(c3ccccc3)C2=O)CC[C@H]1F (mixture of isomers) [Example 239, 3-(2-((3R,4R)-3-amino-4-fluoropiperidin-1-yl)-5,6-difluoro-1H-benzo[d]imidazol-1-yl)-1-phenylpiperidin-2-one] — 3.2-fold lower, 0.562 µM
- N[C@@H]1CN(c2nc3cc(F)c(F)cc3n2C2CCN(c3ccc(Cl)cc3)C2=O)CC[C@H]1F (mixture of isomers) [Example 240, 3-(2-((3R,4R)-3-amino-4-fluoropiperidin-1-yl)-5,6-difluoro-1H-benzo[d]imidazol-1-yl)-1-(4-chlorophenyl)pyrrolidin-2-one] — 170-fold lower, 0.0107 µM
- CC(c1cccc(C#N)c1)n1c(N2CC[C@@H](F)[C@H](N)C2)nc2cc(F)c(F)cc21 (mixture of isomers) [Example 302, 3-(1-(2-((3R,4R)-3-amino-4-fluoropiperidin-1-yl)-5,6-difluoro-1H-benzo[d]imidazol-1-yl)ethyl)benzonitrile] — 18-fold lower, 0.101 µM
- CC(c1ccc(C#N)cc1)n1c(N2CCC[C@H](N)C2)nc2ccccc21 (mixture of isomers) [Example 399, 4-(1-(2-((S)-3-aminopiperidin-1-yl)-1H-benzo[d]imidazol-1-yl)ethyl)benzonitrile] — 87-fold lower, 0.0205 µM
- N[C@@H]1CN(c2nc3cc(F)c(F)cc3n2CC(=O)N2CCCC(C(F)(F)F)C2)CC[C@H]1F (mixture of isomers) [Example 504, 2-(2-((3R,4R)-3-amino-4-fluoropiperidin-1-yl)-5,6-difluoro-1H-benzo[d]imidazol-1-yl)-1-(3-(trifluoromethyl)piperidin-1-yl)ethan-1-one] — 45-fold lower, 0.0393 µM
- CC1CN(C(=O)Cn2c(N3CC[C@@H](F)[C@H](N)C3)nc3cc(F)c(F)cc32)CCO1 (mixture of isomers) [Example 507] — 17-fold lower, 0.102 µM
- N[C@@H]1CN(c2nc3cc(F)c(F)cc3n2CC(=O)N(c2ccccc2)C2C=CS(=O)(=O)C2)CC[C@H]1F (mixture of isomers) [Example 515, 2-(2-((3R,4R)-3-amino-4-fluoropiperidin-1-yl)-5,6-difluoro-1H-benzo[d]imidazol-1-yl)-N-(1,1-dioxido-2,3-dihydrothiophen-3-yl)-N-phenylacetamide] — 9.6-fold lower, 0.186 µM
- N[C@@H]1CN(c2nc3cc(F)c(F)cc3n2CC(=O)N(Cc2cccs2)C2CCS(=O)(=O)C2)CC[C@H]1F (mixture of isomers) [Example 522, 2-(2-((3R,4R)-3-amino-4-fluoropiperidin-1-yl)-5,6-difluoro-1H-benzo[d]imidazol-1-yl)-N-(1,1-dioxidotetrahydrothiophen-3-yl)-N-(thiophen-2-ylmethyl)acetamide] — 2.3-fold lower, 0.762 µM
- N[C@@H]1CN(c2nc3cc(F)c(F)cc3n2CC(=O)N2CCC3CCCCC3C2)CC[C@H]1F (mixture of isomers) [Example 523, 2-(2-((3R,4R)-3-amino-4-fluoropiperidin-1-yl)-5,6-difluoro-1H-benzo[d]imidazol-1-yl)-1-(octahydroisoquinolin-2(1H)-yl)ethan-1-one] — 1.8-fold lower, 0.988 µM
- CCN(C(=O)Cn1c(N2CC[C@@H](F)[C@H](N)C2)nc2cc(F)c(F)cc21)C1CCS(=O)(=O)C1 (mixture of isomers) [Example 527, 2-(2-((3R,4R)-3-amino-4-fluoropiperidin-1-yl)-5,6-difluoro-1H-benzo[d]imidazol-1-yl)-N-(1,1-dioxidotetrahydrothiophen-3-yl)-N-ethylacetamide] — 1.7-fold higher, 3.01 µM
- NC(=O)C1CCCN(C(=O)Cn2c(N3CC[C@@H](F)[C@H](N)C3)nc3cc(F)c(F)cc32)C1 (mixture of isomers) [Example 530, 1-(2-(2-((3R,4R)-3-amino-4-fluoropiperidin-1-yl)-5,6-difluoro-1H-benzo[d]imidazol-1-yl)acetyl)piperidine-3-carboxamide] — higher, > 3.75 µM
- N[C@@H]1CN(c2nc3cc(F)c(F)cc3n2CC(=O)N2CCC3CC32)CC[C@H]1F (mixture of isomers) [Example 609, 2-(2-((3R,4R)-3-amino-4-fluoropiperidin-1-yl)-5,6-difluoro-1H-benzo[d]imidazol-1-yl)-1-(2-azabicyclo[3.1.0]hexan-2-yl)ethanone] — 88-fold lower, 0.0203 µM
- CC(CC#N)N(C)C(=O)Cn1c(N2CC[C@@H](F)[C@H](N)C2)nc2cc(F)c(F)cc21 (mixture of isomers) [Example 612, 2-(2-((3R,4R)-3-amino-4-fluoropiperidin-1-yl)-5,6-difluoro-1H-benzo[d]imidazol-1-yl)-N-(1-cyanopropan-2-yl)-N-methylacetamide] — 79-fold lower, 0.0224 µM
- CC(N(C)C(=O)Cn1c(N2CC[C@@H](F)[C@H](N)C2)nc2cc(F)c(F)cc21)C(F)(F)F (mixture of isomers) [Example 614, 2-(2-((3R,4R)-3-amino-4-fluoropiperidin-1-yl)-5,6-difluoro-1H-benzo[d]imidazol-1-yl)-N-methyl-N-(1,1,1-trifluoropropan-2-yl)acetamide] — 72-fold lower, 0.0248 µM
- N[C@@H]1CN(c2nc3cc(F)c(F)cc3n2CC(=O)N2CCOC3CCOCC32)CC[C@H]1F (mixture of isomers) [Example 620, 2-(2-((3R,4R)-3-amino-4-fluoropiperidin-1-yl)-5,6-difluoro-1H-benzo[d]imidazol-1-yl)-1-(hexahydropyrano[4,3-b][1,4]oxazin-4(7H)-yl)ethanone] — 29-fold lower, 0.0604 µM
- CC(C#N)CN(C)C(=O)Cn1c(N2CC[C@@H](F)[C@H](N)C2)nc2cc(F)c(F)cc21 (mixture of isomers) [Example 621, 2-(2-((3R,4R)-3-amino-4-fluoropiperidin-1-yl)-5,6-difluoro-1H-benzo[d]imidazol-1-yl)-N-(2-cyanopropyl)-N-methylacetamide] — 24-fold lower, 0.0753 µM
